This note sets out measurements from patent publication US20250179047A1, “5-[7-(3,4-DIHYDRO-1H-ISOQUINOLINE-2-CARBONYL)-1,2,3,4 TETRAHYDROISOQUINOLIN-6-YL]-1H-PYRROLE-3-CARBOXAMIDE DERIVATIVES, PHARMACEUTICAL COMPOSITIONS CONTAINING THEM AND THEIR USES AS PRO-APOPTOTIC AGENTS” (LES LABORATOIRES SERVIER, priority 2022, published 2025).

The subject of assay [1] is KMS-12-PE Bcl-2 WT. Briefly: In vitro cytotoxicity CellTiter-Glo 48 h, KMS-12-PE Bcl-2 WT. The class given is cell-based. Particulars: Homo sapiens, KMS-12-PE, C50 = concentration needed to reach 50% of the cellular viability. The procedure, abridged: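 KMS-12-PE myeloma cells lentivirally transduced with Bcl-2 WT or G101V (TagRFP-sorted), exposed to compound 11-point dose-response for 48 h at 37 °C, 5% CO2. Viability read by CellTiter-Glo ATP luminescence; C50 is the concentration giving 50% cellular viability.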

In assay [2] the target is BCL2 D103Y (Homo sapiens, UniProt P10415, D103Y). Briefly: TR-FRET competitive binding assay, BCL2 D103Y. Particulars: Ki determined from IC50, read-out: TR_FRET EKI_Bcl2 D103Y. The procedure, abridged: (§1)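 Ki derived from IC50 (11-point dilution, 520/495 nm emission ratio) for displacing a fluorescein-labelled PUMA peptide (2 or 20 nM). Target was 0.5 nM E. coli-expressed Halo-tagged BCL2 (1-207) or BCLXL (2-196), terbium-labelled on Halo. Incubation 2 h at 23°C in pH 7.5 Hepes with 150 mM NaCl and 5% DMSO.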

Assay [3] relates to BCL2 G101V. The assay can be described thus: TR-FRET competitive binding assay, BCL2 G101V. Also noted: species or system human. Particulars: for TR_FRET EKI G101V/WT selectivty ratio: ratio Ki BCL2 G101V / Ki BCL2 WT. Put shortly:
as §1

Assay [4] deals with BCL2 G101V (Homo sapiens, UniProt P10415, G101V). Briefly: TR-FRET competitive binding assay, BCL2 G101V. Particulars: BCL2 G101V; Ki determined from IC50; read-out: TR_FRET EKI_Bcl2 G101V. Put shortly:
as §1

The target of assay [5] is BCLXL WT (Homo sapiens (Human), UniProt Q07817). Briefly: TR-FRET competitive binding assay, BCLXL WT. Particulars: for Ki: BCLXL WT, Ki determined from IC50, read-out: TR_FRET EKI BclxL; for TR_FRET EKI BCLxL/WT selectivty ratio: ratio Ki BCLxL / Ki BCL2 WT. Put shortly:
as §1

In assay [6] the target is BCL2 WT (Homo sapiens (Human), UniProt P10415). Briefly: TR-FRET competitive binding assay, BCL2 WT. The procedure, abridged: as §1
Setting [7] is: Ki determined from IC50, read-out: TR_FRET EKI_Bcl2 WT.

Read-outs that look alike come from different tables or passages of the source.

BCLXL WT, sequence (Q07817 other isoform, or with tags, fused parts or gaps): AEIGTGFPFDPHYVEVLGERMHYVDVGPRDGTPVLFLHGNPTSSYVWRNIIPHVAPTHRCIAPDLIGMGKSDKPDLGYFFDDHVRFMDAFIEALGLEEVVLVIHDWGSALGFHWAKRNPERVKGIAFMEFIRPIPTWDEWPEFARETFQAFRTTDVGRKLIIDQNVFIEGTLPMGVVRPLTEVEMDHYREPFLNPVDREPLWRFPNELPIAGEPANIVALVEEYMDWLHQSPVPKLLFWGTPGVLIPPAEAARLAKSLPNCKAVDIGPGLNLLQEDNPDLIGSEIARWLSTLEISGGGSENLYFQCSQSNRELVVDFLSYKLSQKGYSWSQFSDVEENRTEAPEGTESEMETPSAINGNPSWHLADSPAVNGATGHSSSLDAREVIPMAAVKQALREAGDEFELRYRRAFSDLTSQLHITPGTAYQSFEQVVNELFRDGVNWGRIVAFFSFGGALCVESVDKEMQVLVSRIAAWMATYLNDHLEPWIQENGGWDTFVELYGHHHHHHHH

The compound `Cc1c(C(=O)N(c2ccccc2)c2cnn(C)c2)cc(-c2cc3c(cc2C(=O)N2Cc4ccccc4C[C@H]2C)CN(C(=O)Cc2cccc(C4CCN(C)CC4)c2)CC3)n1C` [Example 216, 1,2-dimethyl-5-[7-[(3R)-3-methyl-3,4-dihydro-1H-isoquinoline-2-carbonyl]-2-[2-[3-(1-methyl-4-piperidyl)phenyl]acetyl]-3,4-dihydro-1H-isoquinolin-6-yl]-N-(1-methylpyrazol-4-yl)-N-phenyl-pyrrole-3-carboxamide] showed an IC50 in assay [1] of 0.0449 µM. Moreover, the Ki in assay [2] stood at 0.33 nM; in assay [4] it was 6.4 nM; in assay [5] it was 2.6 nM; in assay [6] (setting [7]), 0.05 nM. In assay [3], the “TR_FRET EKI G101V/WT selectivty ratio” value was found to be 125.5. Besides, in assay [5], the “TR_FRET EKI BCLxL/WT selectivty ratio” value stood at 50.1.

`Cc1c(C(=O)N(c2ccccc2)c2cnn(C(F)F)c2)cc(-c2cc3c(cc2C(=O)N2Cc4ccccc4C[C@H]2C)CN(C(=O)Cc2ccc(OCCC4CCN(C)CC4)cc2)CC3)n1C` [Example 238] had an IC50 in assay [1] of 0.00907 µM. Besides, the Ki in assay [2] came out at 0.13 nM; in assay [4], 1.07 nM; in assay [5], 2.8 nM; in assay [6] (Ki determined from IC50, read-out: TR_FRET EKI_Bcl2), 0.064 nM. Besides, the “TR_FRET EKI G101V/WT selectivty” value in assay [3] (ratio of Ki BCL2 G101V to BCL2 WT) was 16.7. Besides, the “TR_FRET EKI BCLxL/WT selectivty” value in assay [5] (ratio of Ki BCLxL to BCL2 WT) turned out to be 43.8.

On to `COc1ncc(N(C(=O)c2cc(-c3cc4c(cc3C(=O)N3Cc5ccccc5C[C@H]3C)CN(C(=O)Cc3ccc(OCCN5CCOCC5)cc3)CC4)n(C)c2C)c2ccccc2)cc1F` [Example 183, N-(5-fluoro-6-methoxy-3-pyridyl)-1,2-dimethyl-5-[7-[(3R)-3-methyl-3,4-dihydro-1H-isoquinoline-2-carbonyl]-2-[2-[4-(2-morpholinoethoxy)phenyl]acetyl]-3,4-dihydro-1H-isoquinolin-6-yl]-N-phenyl-pyrrole-3-carboxamide], for which the IC50 in assay [1] came to 0.0143 µM. Besides, the Ki in assay [2] was found to be 0.35 nM; in assay [4] it was 5.6 nM; in assay [5], 15.1 nM; in assay [6] (setting [7]), 0.13 nM. Further, the “TR_FRET EKI G101V/WT selectivty ratio” value in assay [3] is reported as 43.8. Besides, the “TR_FRET EKI BCLxL/WT selectivty ratio” value in assay [5] is listed as 117.3.

On to `Cc1c(N(C(=O)c2cc(-c3cc4c(cc3C(=O)N3Cc5ccccc5C[C@H]3CN3CCCCC3)CN(C(=O)C(F)(F)c3ccc(OCCN5CCOCC5)cc3)CC4)n(C)c2C)c2ccc(O)cc2)cc(C#N)n1C` [Example 178, N-(5-cyano-1,2-dimethyl-pyrrol-3-yl)-5-[2-[2,2-difluoro-2-[4-(2-morpholinoethoxy)phenyl]acetyl]-7-[(3S)-3-(1-piperidylmethyl)-3,4-dihydro-1H-isoquinoline-2-carbonyl]-3,4-dihydro-1H-isoquinolin-6-yl]-N-(4-hydroxyphenyl)-1,2-dimethyl-pyrrole-3-carboxamide], for which inhibition in assay [1] was half-maximal at 0.0109 µM (IC50). Further, the Ki in assay [2] was found to be 0.16 nM; in assay [4], 1.3 nM; in assay [5] it was 11.9 nM; in assay [6] (setting [7]), 0.09 nM. Also, in assay [3], the “TR_FRET EKI G101V/WT selectivty ratio” value worked out at 15.3. For the same compound, the “TR_FRET EKI BCLxL/WT selectivty ratio” value in assay [5] is 137.8.

`Cc1ccc(N(C(=O)c2cc(-c3cc4c(cc3C(=O)N3Cc5ccccc5C[C@H]3C)CN(C(=O)Cc3ccc(OCCN5CCOCC5)cc3)CC4)n(C)c2C)c2ccccc2)cc1C#N` [Example 204, N-(3-cyano-4-methyl-phenyl)-1,2-dimethyl-5-[7-[(3R)-3-methyl-3,4-dihydro-1H-isoquinoline-2-carbonyl]-2-[2-[4-(2-morpholinoethoxy)phenyl]acetyl]-3,4-dihydro-1H-isoquinolin-6-yl]-N-phenyl-pyrrole-3-carboxamide]: in assay [1], the IC50 amounted to 0.0111 µM. The Ki in assay [2] came out at 0.17 nM; in assay [4], 1.9 nM; in assay [5], 9.6 nM; in assay [6] (setting [7]), 0.06 nM. In addition, the “TR_FRET EKI G101V/WT selectivty ratio” value in assay [3] was 30.8. Also, in assay [5], the “TR_FRET EKI BCLxL/WT selectivty ratio” value is listed as 152.4.

In assay [1], `Cc1c(C(=O)N(c2ccccc2)c2cnn(C)c2)cc(-c2cc3c(cc2C(=O)N2Cc4ccccc4C[C@H]2C)CN(C(=O)Cc2ccc(OCCN4CCOCC4)cc2F)CC3)n1C` [Example 197, 5-[2-[2-[2-fluoro-4-(2-morpholinoethoxy)phenyl]acetyl]-7-[(3R)-3-methyl-3,4-dihydro-1H-isoquinoline-2-carbonyl]-3,4-dihydro-1H-isoquinolin-6-yl]-1,2-dimethyl-N-(1-methylpyrazol-4-yl)-N-phenyl-pyrrole-3-carboxamide] yielded an IC50 of 0.0023 µM. Further, the Ki turned out to be 0.05 nM in assay [2], 1.2 nM in assay [4], 9.9 nM in assay [5] and 0.02 nM in assay [6] (setting [7]). Also, the “TR_FRET EKI G101V/WT selectivty ratio” value in assay [3] turned out to be 63.9. Further, in assay [5], the “TR_FRET EKI BCLxL/WT selectivty ratio” value was 523.3.

In assay [1], `Cc1c(C(=O)N(c2ccccc2)c2cnn(CCN(C)C)c2)cc(-c2cc3c(cc2C(=O)N2Cc4ccccc4C[C@H]2C)CN(C(=O)Cc2ccc(OCCC4CCOCC4)cc2)CC3)n1C` [Example 207, N-[l-[2-(dimethylamino)ethyl]pyrazol-4-yl]-1,2-dimethyl-5-[7-[(3R)-3-methyl-3,4-dihydro-1H-isoquinoline-2-carbonyl]-2-[2-[4-(2-tetrahydropyran-4-ylethoxy)phenyl]acetyl]-3,4-dihydro-1H-isoquinolin-6-yl]-N-phenyl-pyrrole-3-carboxamide] came in with an IC50 of 0.023 µM. Further, the Ki in assay [2] was determined as 0.04 nM; in assay [4], 1.4 nM; in assay [5] it was 3 nM; in assay [6] (setting [7]), 0.02 nM. Also, the “TR_FRET EKI G101V/WT selectivty ratio” value in assay [3] is 68.8. The “TR_FRET EKI BCLxL/WT selectivty ratio” value in assay [5] was 150.0.

For `Cc1ccc(N(C(=O)c2cc(-c3cc4c(cc3C(=O)N3Cc5ccccc5C[C@H]3C)CN(C(=O)Cc3ccc(OCCN5CCOCC5)cc3F)CC4)n(C)c2C)c2ccccc2)cc1C#N` [Example 203, N-(3-cyano-4-methyl-phenyl)-5-[2-[2-[2-fluoro-4-(2-morpholinoethoxy)phenyl]acetyl]-7-[(3R)-3-methyl-3,4-dihydro-1H-isoquinoline-2-carbonyl]-3,4-dihydro-1H-isoquinolin-6-yl]-1,2-dimethyl-N-phenyl-pyrrole-3-carboxamide], the IC50 in assay [1] came to 0.0091 µM. In addition, the Ki in assay [2] was found to be 0.06 nM; in assay [4], 0.5 nM; in assay [5] it was 8.5 nM; in assay [6] (setting [7]), 0.02 nM. For the same compound, the “TR_FRET EKI G101V/WT selectivty ratio” value in assay [3] was found to be 23.3. Besides, the “TR_FRET EKI BCLxL/WT selectivty ratio” value in assay [5] was 404.3.

As to `COc1ccc(N(C(=O)c2cc(-c3cc4c(cc3C(=O)N3Cc5ccccc5C[C@H]3C)CN(C(=O)Cc3ccc(OCCN5CCOCC5)cc3)CC4)n(C)c2C)c2ccccc2)cn1` [Example 191, N-(6-methoxy-3-pyridyl)-1,2-dimethyl-5-[7-[(3R)-3-methyl-3,4-dihydro-1H-isoquinoline-2-carbonyl]-2-[2-[4-(2-morpholinoethoxy)phenyl]acetyl]-3,4-dihydro-1H-isoquinolin-6-yl]-N-phenyl-pyrrole-3-carboxamide], the IC50 in assay [1] was 0.0131 µM. Besides, the Ki in assay [2] was found to be 0.07 nM; in assay [4], 2.4 nM; in assay [5] it was 9.5 nM; in assay [6] (setting [7]), 0.04 nM. Also, in assay [3], the “TR_FRET EKI G101V/WT selectivty ratio” value is reported as 65.3. In addition, the “TR_FRET EKI BCLxL/WT selectivty ratio” value in assay [5] is on record as 264.0.
